Laboratory results published in publication PMC4659430 (Journal of biomolecular screening, 2015).
Entries after “also recorded” stand apart in the source; their conditions may differ.

Key:
Assay type in all cases: cell-based
[1] = biological target: T1, human M4 (hM4) (Homo sapiens, UniProt P08173); test: M4 multiparametric FLIPR calcium assay, PAM mode; settings: compound tested at 3 µM, versus EC20 acetylcholine
T1 sequence (P08173 1-479): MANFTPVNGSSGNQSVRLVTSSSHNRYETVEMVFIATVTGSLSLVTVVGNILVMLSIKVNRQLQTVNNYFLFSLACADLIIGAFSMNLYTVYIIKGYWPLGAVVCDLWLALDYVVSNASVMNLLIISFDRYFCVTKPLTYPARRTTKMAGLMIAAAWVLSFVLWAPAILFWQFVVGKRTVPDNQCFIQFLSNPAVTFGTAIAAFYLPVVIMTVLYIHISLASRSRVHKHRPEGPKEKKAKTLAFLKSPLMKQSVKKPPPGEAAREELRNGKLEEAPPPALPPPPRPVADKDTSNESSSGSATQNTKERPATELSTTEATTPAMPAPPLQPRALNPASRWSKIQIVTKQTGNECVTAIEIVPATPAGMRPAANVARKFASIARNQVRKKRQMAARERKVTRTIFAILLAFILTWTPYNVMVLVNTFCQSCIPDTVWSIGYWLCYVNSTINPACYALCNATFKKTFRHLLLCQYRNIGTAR

[2] = biological target: T1, human M4 (hM4); test: M4 multiparametric FLIPR calcium assay, agonist mode; settings: compound tested at 3 µM, versus DMSO
[3] = biological target: T1, human M4 (hM4); test: M4 multiparametric FLIPR calcium assay, antagonist mode; settings: compound tested at 3 µM, versus EC80 acetylcholine

Compound | response in PAM mode (kinetic trace) [1] | response in agonist mode (kinetic trace) [2] | response in antagonist mode (kinetic trace) [3]
COc1ccc(CNC(=O)c2sc3nc(C)cc(C)c3c2N)cc1 [ML108] | classified as PAMs | active; also recorded: yielded responses in the agonist mode | 
C/C=C(/C)C(=O)O[C@H]1C(C)=C2[C@H]([C@@H]1OC(=O)CCCCCCC)[C@@](C)(OC(C)=O)C[C@H](OC(=O)CCC)[C@@]1(O)[C@H]2OC(=O)[C@@]1(C)O [thapsigargin] | hit in all modes | hit in all modes | hit in all modes
